How the values were obtained:
[1] = tested on: patients with atypical symptoms of gastroesophageal reflux; test: Clinical treatment of patients with atypical symptoms of gastroesophageal reflux; format: in vivo, human; parameters: Safety: key: +: moderate; ++: ranging from moderate to highly favorable; +++: highly favorable; settings: oral; on Evolution of symptom: key: +: moderate; ++: ranging from moderate to highly favorable; +++: highly favorable
Description: Some clinical examples are given below, which show the effects of treatment on patients suffering from gastroesophageal reflux or dyspepsia, treated by the oral administration of tenatoprazole.

[2] = tested on: patients suffering from erosive and/or ulcerative type reflux esophagitis; test: Open-labeled studies in reflux esophagitis: improvement rating of subjective and objective symptoms; format: in vivo, human; settings: 10 mg tablet orally once a day
Description: Two open-labeled studies have been conducted in order to evaluate the efficacy and safety of tenatoprazole for gastroesophageal reflux disease. 22 patients in the first study and 24 patients in the second study, of more than 20 years of age, suffering from erosive and/or ulcerative type reflux esophagitis (diagnosed by endoscopy), received tablets containing enteric-coated granules with 10 mg of tenatoprazole.
[…] […], or at the withdrawal from the study, the disease stages were evaluated according to the Savary and Miller classification and the treatment was stopped when healing was confirmed. The condition was evaluated as healed when disappearance of erosion was confirmed.

[3] = patient 26, asthma, link with GERD ++, 12 weeks
[4] = patient 27, dental caries, link with GERD +, 12 weeks
[5] = patient 29, noct. cough, link with GERD +++, 7 weeks
[6] = patient 31, pharyngitis, link with GERD +, 8 weeks
[7] = patient 33, asthma, link with GERD ++, 12 weeks
[8] = patient 34, dysphonia, link with GERD ++, 4 weeks
[9] = patient 34, pharyngitis, link with GERD ++, 8 weeks
[10] = patient 36, dysphonia, link with GERD ++, 5 weeks
[11] = patient 36, noct. cough, link with GERD ++, 8 weeks
[12] = patient 44, pharyngitis, link with GERD +, 4 weeks
[13] = patient 45, pseudo-angina, link with GERD ++, 8 weeks
[14] = patient 49, pseudo-angina, link with GERD ++, 12 weeks

## COc1ccc2[nH]c([S+]([O-])Cc3ncc(C)c(OC)c3C)nc2n1 (stereo not drawn) [tenatoprazole, 5-methoxy-2-[[(4-methoxy-3,5-dimethyl-2-pyridyl)methyl]sulfinyl]imidazo[4,5-b]pyridine]
[1]; [3]
  Evolution of symptom: +++
  Safety: +++
[1]; [4]
  Evolution of symptom: 0
  Safety: ++
[1]; [5]
  Evolution of symptom: +++
  Safety: +++
[1]; [6]
  Evolution of symptom: +
  Safety: +++
[1]; [7]
  Evolution of symptom: ++
  Safety: +++
[1]; [8]
  Evolution of symptom: ++
  Safety: +++
[1]; [9]
  Evolution of symptom: ++
  Safety: +++
[1]; [10]
  Evolution of symptom: +++
  Safety: +++
[1]; [11]
  Evolution of symptom: +++
  Safety: ++
[1]; [12]
  Evolution of symptom: ++
  Safety: +++
[1]; [13]
  Evolution of symptom: +++
  Safety: +++
[1]; [14]
  Evolution of symptom: +++
  Safety: +++
[2]; 1st study, 1 week
  Improvement rating of symptoms, patients rated A markedly improved: 16
  Improvement rating of symptoms, patients rated B moderately improved: 6
  Improvement rating of symptoms, patients rated C slightly improved: 0
  Improvement rating of symptoms, patients rated D not changed: 3
  Improvement rating of symptoms, patients rated E aggravated: 0
[2]; 1st study, 2 weeks
  Improvement rating of symptoms, patients rated A markedly improved: 21
  Improvement rating of symptoms, patients rated B moderately improved: 1
  Improvement rating of symptoms, patients rated C slightly improved: 0
  Improvement rating of symptoms, patients rated D not changed: 1
  Improvement rating of symptoms, patients rated E aggravated: 0
[2]; 1st study, 4 weeks
  Improvement rating of symptoms, patients rated A markedly improved: 23
  Improvement rating of symptoms, patients rated B moderately improved: 0
  Improvement rating of symptoms, patients rated C slightly improved: 1
  Improvement rating of symptoms, patients rated D not changed: 0
  Improvement rating of symptoms, patients rated E aggravated: 0
[2]; 1st study, 6 weeks
  Improvement rating of symptoms, patients rated A markedly improved: 10
  Improvement rating of symptoms, patients rated B moderately improved: 0
  Improvement rating of symptoms, patients rated C slightly improved: 1
  Improvement rating of symptoms, patients rated D not changed: 0
  Improvement rating of symptoms, patients rated E aggravated: 0
[2]; 1st study, 8 weeks
  Improvement rating of symptoms, patients rated A markedly improved: 9
  Improvement rating of symptoms, patients rated B moderately improved: 0
  Improvement rating of symptoms, patients rated C slightly improved: 1
  Improvement rating of symptoms, patients rated D not changed: 0
  Improvement rating of symptoms, patients rated E aggravated: 0
[2]; 1st study, 10 weeks
  Improvement rating of symptoms, patients rated A markedly improved: 2
  Improvement rating of symptoms, patients rated B moderately improved: 0
  Improvement rating of symptoms, patients rated C slightly improved: 0
  Improvement rating of symptoms, patients rated D not changed: 0
  Improvement rating of symptoms, patients rated E aggravated: 0
[2]; 1st study, final
  Improvement rating of symptoms, patients rated A markedly improved: 21
  Improvement rating of symptoms, patients rated B moderately improved: 0
  Improvement rating of symptoms, patients rated C slightly improved: 1
  Improvement rating of symptoms, patients rated D not changed: 0
  Improvement rating of symptoms, patients rated E aggravated: 0
[2]; 2nd study, 1 week
  Improvement rating of symptoms, patients rated A markedly improved: 19
  Improvement rating of symptoms, patients rated B moderately improved: 2
  Improvement rating of symptoms, patients rated C slightly improved: 1
  Improvement rating of symptoms, patients rated D not changed: 1
  Improvement rating of symptoms, patients rated E aggravated: 0
[2]; 2nd study, 2 weeks
  Improvement rating of symptoms, patients rated A markedly improved: 21
  Improvement rating of symptoms, patients rated B moderately improved: 1
  Improvement rating of symptoms, patients rated C slightly improved: 1
  Improvement rating of symptoms, patients rated D not changed: 0
  Improvement rating of symptoms, patients rated E aggravated: 0
[2]; 2nd study, 4 weeks
  Improvement rating of symptoms, patients rated A markedly improved: 20
  Improvement rating of symptoms, patients rated B moderately improved: 1
  Improvement rating of symptoms, patients rated C slightly improved: 1
  Improvement rating of symptoms, patients rated D not changed: 0
  Improvement rating of symptoms, patients rated E aggravated: 0
[2]; 2nd study, 6 weeks
  Improvement rating of symptoms, patients rated A markedly improved: 10
  Improvement rating of symptoms, patients rated B moderately improved: 0
  Improvement rating of symptoms, patients rated C slightly improved: 1
  Improvement rating of symptoms, patients rated D not changed: 0
  Improvement rating of symptoms, patients rated E aggravated: 0
[2]; 2nd study, 8 weeks
  Improvement rating of symptoms, patients rated A markedly improved: 10
  Improvement rating of symptoms, patients rated B moderately improved: 1
  Improvement rating of symptoms, patients rated C slightly improved: 0
  Improvement rating of symptoms, patients rated D not changed: 0
  Improvement rating of symptoms, patients rated E aggravated: 0
[2]; 2nd study, 10 weeks
  Improvement rating of symptoms, patients rated A markedly improved: 0
  Improvement rating of symptoms, patients rated B moderately improved: 1
  Improvement rating of symptoms, patients rated C slightly improved: 0
  Improvement rating of symptoms, patients rated D not changed: 0
  Improvement rating of symptoms, patients rated E aggravated: 0
[2]; 2nd study, 12 weeks
  Improvement rating of symptoms, patients rated A markedly improved: 0
  Improvement rating of symptoms, patients rated B moderately improved: 1
  Improvement rating of symptoms, patients rated C slightly improved: 0
  Improvement rating of symptoms, patients rated D not changed: 0
  Improvement rating of symptoms, patients rated E aggravated: 0
[2]; 2nd study, final
  Improvement rating of symptoms, patients rated A markedly improved: 19
  Improvement rating of symptoms, patients rated B moderately improved: 2
  Improvement rating of symptoms, patients rated C slightly improved: 0
  Improvement rating of symptoms, patients rated D not changed: 0
  Improvement rating of symptoms, patients rated E aggravated: 0
